Values quoted from earlier work in US20090041869A1, “METHOD OF REDUCING INSECT RESISTANT PESTS IN […]” (PIONEER HI-BRED INTERNATIONAL, INC., priority 2004, published 2009).
Entries after “also recorded” stand apart in the source; their conditions may differ. Read-outs that look alike come from different tables or passages of the source.

Tested on: European corn borer, Ostrinia nubilalis
Details: Cry 1F selected colony vs unselected colony, likelihood ratio test at α=0.05

Cry 1Ac: Bt crystal protein toxin assessed for cross resistance
cross resistance of the Cry 1F selected strain to other Bt toxins: 6.89 fold

Cry 1Ab: Bt crystal protein toxin assessed for cross resistance
cross resistance of the Cry 1F selected strain to other Bt toxins: No cross resistance; also recorded: does not lead to loss of susceptibility | cross resistance of the Cry 1F selected strain to other Bt toxins (listed as Cry1 Ab): no cross resistance
